Assay results taken from publication PMC4490100 (Clinical cancer research : an official journal of the …, 2015).

Legend:
[1] = tested on: mononuclear cells from normal bone marrow; assay type: cell-based, human
[2] = tested on: OCI-AML3 cells; experiment: Cell death assay; assay type: cell-based, human; conditions: OCI-AML3, overnight at 37 °C, 40 μM or higher, AnnexinV-FITC/PI flow cytometry
[3] = tested on: human leukemia cells; experiment: Leukemia cell morphology after overnight incubation; assay type: cell-based; conditions: overnight incubation (Fig. 4C)

Question: “CGRRAGGSC-GG-D(KLAKLAK)2 (disulfide) [BMTP-11]” was tested. Which “effects on mononuclear cells from normal bone marrow” value [1] did it give?
Answer: no detectable effects

Question: And the “cell death (fraction of cells)” value [2]?
Answer: ~ 90%

Question: What about the “effect on leukemia cell morphology” value [3] of the same substance?
Answer: affected the morphology
